For 30 compounds, melting point results are on record in patent US6930185B2, “Melanin-concentrating hormone antagonist” (Takeda Chemical Industries, Ltd., priority 2000, dated 2005).

SMILES strings stand for the structures.

Regarding `O=C(Oc1ccc2cc(CN3CCCC3)ccc2c1)N1CCC(c2ccc(Cl)cc2)CC1`, the melting point was in the range of 121 to 123 °C. The value for `COc1ccc(C2CCN(C(=O)Oc3ccc4cc(CN5CCCC5)ccc4c3)CC2)cc1` was 127 to 129 °C; that for `Cc1ccc(C2CCN(C(=O)Oc3ccc4cc(CN5CCCC5)ccc4c3)CC2)cc1` was 238 to 240 °C; that for `O=C(Oc1ccc2cc(CN3CCCC3)ccc2c1)N1CCC(c2ccc(F)cc2)CC1` was 106 to 108 °C. The compound `Cl.O=C(Oc1ccc2cc(CN3CCCC3)ccc2c1)N1CCC(c2ccccc2)CC1` registered a melting point of 213 to 215 °C. Regarding `O=C(Nc1ccc2nc(CN3CCCCC3)ccc2c1)c1ccc(-c2ccc(F)cc2F)cc1` (hydrate or solvate) [Example 68, 2′,4′-Difluoro-N-[2-(1-piperidinylmethyl)-6-quinolinyl][1,1′-biphenyl]-4-carboxamide], the melting point lay within 181 to 182 °C.

`O=C(Nc1ccc2cc(CN3CCCC3)ccc2c1)c1ccc(-c2ccc(Cl)cc2)cc1` [Example 2, 4′-Chloro-N-[6-(1-pyrrolidinylmethyl)-2-naphthyl][1,1′-biphenyl]-4-carboxamide] showed a melting point of 214 to 217 °C. The value for `CN(C)Cc1ccc2cc(NC(=O)c3ccc(-c4ccc(Cl)cc4)cc3)ccc2n1` [Example 6, 4′-Chloro-N-[2-[(N,N-dimethylamino)methyl]-6-quinolinyl][1,1′-biphenyl]-4-carboxamide] was 219 to 221 °C; that for `O=C(Nc1ccc2nc(CN3CCCC3)ccc2c1)c1ccc(-c2ccc(F)cc2)cc1` [Example 7, 4′-Fluoro-N-[2-(1-pyrrolidinylmethyl)-6-quinolinyl][1,1′-biphenyl]-4-carboxamide] was 190 to 193 °C. The value for `O=C(Nc1ccc2nc(CN3CCCC3)ccc2c1)c1ccc(-c2ccc(Cl)cc2)cc1` [Example 8, 4′-Chloro-N-[2-(1-pyrrolidinylmethyl)-6-quinolinyl][1,1′-biphenyl]-4-carboxamide] was 200 to 202 °C. The value for `O=C(Nc1ccc2nc(CN3CCCCC3)ccc2c1)c1ccc(-c2ccc(F)cc2)cc1` [Example 9, 4′-Fluoro-N-[2-(1-piperidinylmethyl)-6-quinolinyl][1,1′-biphenyl]-4-carboxamide] was 202 to 204 °C; that for `O=C(Nc1ccc2nc(CN3CCCCC3)ccc2c1)c1ccc(-c2ccc(Cl)cc2)cc1` [Example 10, 4′-Chloro-N-[2-(1-piperidinylmethyl)-6-quinolinyl][1,1′-biphenyl]-4-carboxamide] was 211 to 213 °C. In turn, `O=C(Nc1ccc2nc(CN3CCOCC3)ccc2c1)c1ccc(-c2ccc(Cl)cc2)cc1` [Example 11, 4′-Chloro-N-[2-(4-morpholinylmethyl)-6-quinolinyl][1,1′-biphenyl]-4-carboxamide] showed a melting point of 236 to 238 °C. For `O=C(Nc1ccc2nc(CN3CCOCC3)ccc2c1)c1ccc(-c2ccccc2)cc1` [Example 12, N-[2-(4-Morpholinylmethyl)-6-quinolinyl][1,1′-biphenyl]-4-carboxamide] the value was 214 to 215 °C. The value for `O=C(Nc1ccc2nc(CN3CCOCC3)ccc2c1)c1ccc(-c2ccc(F)cc2)cc1` [Example 13, 4′-Fluoro-N-[2-(4-morpholinylmethyl)-6-quinolinyl][1,1′-biphenyl]-4-carboxamide] was 211 to 212 °C; that for `Cc1ccc(-c2ccc(C(=O)Nc3ccc4nc(CN5CCOCC5)ccc4c3)cn2)cc1` [Example 14, 6-(4-Methylphenyl)-N-[2-(4-morpholinylmethyl)-6-quinolinyl]nicotinamide] was 214 to 216 °C; that for `CN(C)Cc1ccc2cc(NC(=O)c3ccc(-c4ccccc4)cc3)ccc2n1` [Example 15, N-[2-[(Dimethylamino)methyl]-6-quinolinyl][1,1′-biphenyl]-4-carboxamide] was 191 to 194 °C.

As to `CN(C)Cc1ccc2cc(NC(=O)c3ccc(-c4ccc(F)cc4)cc3)ccc2n1` [Example 16, N-[2-[(Dimethylamino)methyl]-6-quinolinyl]-4′-fluoro[1,1′-biphenyl]-4-carboxamide], the melting point lay in the range of 205 to 208 °C.

Consider `Cc1ccc(-c2ccc(C(=O)Nc3ccc4nc(CN(C)C)ccc4c3)cn2)cc1` [Example 17, N-[2-[(Dimethylamino)methyl]-6-quinolinyl]-6-(4-methylphenyl)nicotinamide], for which the melting point lay within 220 to 222 °C. For `CC1CCN(c2ccc(C(=O)Nc3ccc4nc(CN5CCCC5)ccc4c3)cc2)CC1` [Example 21, 4-(4-Methyl-1-piperidinyl)-N-[2-(1-pyrrolidinylmethyl)-6-quinolinyl]benzamide] the value was 200 to 202 °C; for `O=C(Nc1ccc2nc(CN3CCCC3)ccc2c1)c1ccc(N2CCCCC2=O)cc1` [Example 22, 4-(2-Oxo-1-piperidinyl)-N-[2-(1-pyrrolidinylmethyl)-6-quinolinyl]benzamide], 210 to 212 °C; for `CN1CCN(Cc2ccc3cc(NC(=O)c4ccc(-c5ccc(Cl)cc5)cc4)ccc3n2)CC1` [Example 24, 4′-Chloro-N-[2-[(4-methyl-1-piperazinyl)methyl]-6-quinolinyl][1,1′-biphenyl]-4-carboxamide], 215 °C (dec.). For `O=C(Nc1ccc2nc(CN3CCCC3)ccc2c1)N1CCC(c2ccc(F)cc2)CC1` [Example 38, 4-(4-Fluorophenyl)-N-[2-(1-pyrrolidinylmethyl)-6-quinolinyl]-1-piperidinecarboxamide] the value was 206 to 207 °C; for `O=C(Nc1ccc2nc(CN3CCCC3)ccc2c1)N1CCC(c2ccccc2)CC1` [Example 39, 4-Phenyl-N-[2-(1-pyrrolidinylmethyl)-6-quinolinyl]-1-piperidinecarboxamide], 187 to 189 °C. As to `O=C(Nc1ccc2nc(CN3CCCC3)ccc2c1)N1CCC(c2ccc(Cl)cc2)CC1` [Example 40, 4-(4-Chlorophenyl)-N-[2-(1-pyrrolidinylmethyl)-6-quinolinyl]-1-piperidinecarboxamide], the melting point is 205 °C (dec.). The value for `Cc1ccc(C2CCN(C(=O)Nc3ccc4nc(CN5CCCC5)ccc4c3)CC2)cc1` [Example 41, 4-(4-Methylphenyl)-N-[2-(1-pyrrolidinylmethyl)-6-quinolinyl]-1-piperidinecarboxamide] was 214 to 216 °C. Consider `COc1ccc(-c2ccc(C(=O)Nc3ccc4nc(CN5CCCC5)ccc4c3)cn2)cc1` [Example 42, 6-(4-Methoxyphenyl)-N-[2-(1-pyrrolidinylmethyl)-6-quinolinyl]nicotinamide], for which the melting point is 210 °C (dec.).

For the compound `O=C(Nc1ccc2nc(CN3CCCC3)ccc2c1)c1ccc(-c2ccccc2)cc1` [Example 43, N-[2-(1-Pyrrolidinylmethyl)-6-quinolinyl][1,1′-biphenyl]-4-carboxamide], the melting point is 181 to 183 °C. The value for `O=C(Nc1ccc2nc(CN3CCCC3)ccc2c1)c1ccc(-c2ccc(Cl)cc2)nc1` [Example 44, 6-(4-Chlorophenyl)-N-[2-(1-pyrrolidinylmethyl)-6-quinolinyl]nicotinamide] was 225 to 227 °C.

In turn, `O=C(Nc1ccc2nc(CN3CCCC3)ccc2c1)c1ccc(-c2ccc(F)cc2)nc1` [Example 45, 6-(4-Fluorophenyl)-N-[2-(1-pyrrolidinylmethyl)-6-quinolinyl]nicotinamide] showed a melting point of 210 °C.
